In series [1] the test system is RAD52. Further details: method as in Chandramouly et al., 2015. Conditions: ref Chandramouly et al., 2015; cited from earlier work.
The target in series [2] is T1, interaction between RAD52 and RPA proteins (Homo sapiens, UniProt P43351).
T1 construct: made in house
Nature of the series: Ni-NTA pull-down of the RAD52-RPA interaction. It is filed as binding. To be noted: 3 μM RAD52, 3 μM RPA, 3 μM compound.

Series [3] relates to GM01604 cells (hTERT-immortalized wild-type human fibroblasts). Briefly: Neutral comet assay, MUS81/EME1/RAD52-dependent DSB formation. It is filed as cell-based. To be noted: Homo sapiens, Fibroblast; GM01604, 2 mM HU + 300 nM UCN01, 6h; read-out: IC50, decrease of mean tail moment following HU treatment. From the text: In human cells, RAD52 may perform both limited recombination-mediator function in the RAD51-dependent pathway ([Lok and Powell, 2012]; [Benson et al., 1998]; [Feng et al., 2011]) as well as additional RAD51-independent roles ([Lok and Powell, 2012]; [Murfuni et al., 2013]; [McIlwraith and West, 2008]). One of these HR independent roles of RAD52 involves stimulation of MUS81/EME1-dependent DSB formation at replication forks stalled by hydroxyurea (HU) treatment in the absence of cellular checkpoints ([Murfuni et al., 2013]). Since the most likely targets of these MUS81/EME1/RAD52-dependent DSBs are the DNA structures produced by RAD52 ([Murfuni et al., 2013]), we expected this activity to depend on the RAD52-ssDNA interaction (Figure 5a). To confirm this, we assessed DSB formation in checkpoint deficient cells using the neutral comet assay. These assays monitor MUS81/EME1/RAD52-dependent DSB formation upon induction of replication stress by HU treatment in primary fibroblasts immortalized by hTERT expression and treated with UNC01 to inhibit CHK1 kinase (Figure 5b). […] Importantly, these inhibitors recapitulate RAD52 depletion by inhibiting RAD52-MUS81-dependent DSBs at stalled replication forks (Figure 5a–b). […] It also confirms our previous supposition that the target of MUS81/EME1-mediated cleavage under these conditions are indeed the structures annealed by RAD52. […]
To induce RAD52-MUS81-dependent cleavage at arrested replication forks ([Murfuni et al., 2013]), hTERT-immortalized wild-type human fibroblasts (GM01604) were treated with 2 mM HU and 300 nM UCN01 for 6h, in the presence and absence of varying concentrations of ‘1’ or ‘6’. […] Slides were analyzed by a computerized image analysis system (Comet IV, Perceptive UK). To assess the quantity of DNA damage, computer-generated tail moment values (tail length x fraction of total DNA in the tail) were used. […] A minimum of 100 cells were analyzed for each compound concentration point.

For series [4], the target named is T2, RAD52 (Homo sapiens, UniProt P43351).
T2 construct: made in house
T2 sequence (P43351 1-418): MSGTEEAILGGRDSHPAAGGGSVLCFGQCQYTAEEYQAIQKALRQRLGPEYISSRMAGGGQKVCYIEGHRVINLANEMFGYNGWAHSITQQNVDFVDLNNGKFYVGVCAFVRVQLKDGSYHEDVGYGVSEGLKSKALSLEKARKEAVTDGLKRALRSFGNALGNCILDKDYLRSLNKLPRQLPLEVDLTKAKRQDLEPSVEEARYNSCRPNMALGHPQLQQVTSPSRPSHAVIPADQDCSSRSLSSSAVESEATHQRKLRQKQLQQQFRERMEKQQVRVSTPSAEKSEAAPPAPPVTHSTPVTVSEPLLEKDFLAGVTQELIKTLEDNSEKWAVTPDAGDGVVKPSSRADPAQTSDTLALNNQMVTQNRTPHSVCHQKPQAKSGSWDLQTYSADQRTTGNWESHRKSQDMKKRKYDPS
Nature of the series: WaterLOGSY NMR binding to RAD52. To be noted: 20-40 μM compound, 3.3 μM RAD52. The text has this: (§1) To confirm that the selected compounds bind RAD52, we employed water-ligand observation with gradient spectroscopy (WaterLOGSY), an NMR technique, which is based on transfer of magnetization from bulk water to the protein-bound compound of interest ([Dalvit et al., 2001], [2000]). In WaterLOGSY spectrum, if a compound binds to a protein, the compound will receive negative nuclear Overhauser effects (NOEs) due to the slow tumbling of the protein-compound complex, leading to a positive WaterLOGSY peak. […] Similarly, the binding of ‘6’to RAD52 is evident from the positive WaterLOGSY peaks that are clearly detected for this compound (Figure 3a).
(§2) Compound binding to RAD52 and RPA proteins was analyzed using water-ligand observation with gradient spectroscopy (WaterLOGSY) NMR experiments ([Dalvit et al., 2001], [2000]). The WaterLOGSY spectra of compounds in the presence of RAD52 or RPA were acquired using a water NOE mixing time of 1 s and a T2 relaxation filter of 50 ms just before data acquisition to suppress the broad signals derived from protein. The protein buffer used in the experiments contains 10 mM Tris-d11, 75 mM KCl, 0.25 mM EDTA, pH 7.5, and 10% D20. All NMR data were acquired on a Bruker Avance II 800 MHz NMR spectrometer equipped with a sensitive cryoprobe and recorded at 25°C. The ^1H chemical shifts were referenced to 2,2-dimethyl-2-silapentane-5-sulfonate (DSS). NMR spectra were processed using NMR Pipe ([Delaglio et al., 1995]) and analysed using NMR View ([Johnson and Blevins, 1994]).

Series [5] has as its target T3, RPA-ssDNA interaction (Homo sapiens, UniProt P15927+P27694+P35244).
T3 construct: made in house
Nature of the series: FRET titration of the RPA-Cy3-dT30-Cy5 complex. Type of series: binding. To be noted: range of tested concentrations. The text has this:
In the cell, ssDNA is typically found in complex with Replication protein A (RPA), the major eukaryotic ssDNA-binding protein essential for DNA replication, repair and recombination ([Wold, 1997]; [Oakley and Patrick, 2010]; [Chen and Wold, 2014]). The RPA-ssDNA complex is a physiologically relevant substrate for the RAD52-mediated strand annealing. […] RPA binds ssDNA with high affinity and extends the ssDNA to its contour length. In our assays such an extension manifests as a distinct FRET state of ~0.3, which is readily distinguished from a FRET state of ~0.48 of free Cy3-dT30-Cy5 ssDNA, as well as ~0.63 FRET of the stoichiometric ssDNA-RPA-RAD52 complex (see Figure 2—figure supplement 1 and ([Grimme and Spies, 2011]) for details). […] Both, however, inhibited the RAD52 binding to and wrapping of RPA-coated ssDNA with IC50 values identical to those determined without RPA (Figure 2e and Figure 3e).
In all experiments, the FRET values for each data point were corrected for the effects of the compounds on the respective substrate in the absence of RAD52.

Series [6] addresses T4, RPA (Homo sapiens, UniProt P15927+P27694+P35244).
T4 construct: made in house
Nature of the series: WaterLOGSY NMR binding to RPA. To be noted: 20-40 μM compound, 3.3 μM RPA.
Excerpt: as §1, §2

For series [7], the target named is RAD52;RPA (Homo sapiens?;Homo sapiens?, UniProt P43351;P27694;P15927;P35244 1-418;1-616;1-270;1-121, |). Briefly: FRET; 1 nM RPA-coated ssDNA titrated with RAD52; FRET about 0.63; FRET: 30 mM Tris-acetate pH 7.5, 1 mM DTT, 0.1 mg/mL BSA, 25 C; HTS: 20 mM Hepes pH 7.5, 1 mM DTT, 0.1 mg/mL BSA, 25 C. To be noted: protein: recombinant;recombinant; tags: ;; chain copies: 7;1;1;1; label: Cy3 and Cy5 at the two ends.
RAD52;RPA, sequence (P27694 whole entry, chain 2 of 3): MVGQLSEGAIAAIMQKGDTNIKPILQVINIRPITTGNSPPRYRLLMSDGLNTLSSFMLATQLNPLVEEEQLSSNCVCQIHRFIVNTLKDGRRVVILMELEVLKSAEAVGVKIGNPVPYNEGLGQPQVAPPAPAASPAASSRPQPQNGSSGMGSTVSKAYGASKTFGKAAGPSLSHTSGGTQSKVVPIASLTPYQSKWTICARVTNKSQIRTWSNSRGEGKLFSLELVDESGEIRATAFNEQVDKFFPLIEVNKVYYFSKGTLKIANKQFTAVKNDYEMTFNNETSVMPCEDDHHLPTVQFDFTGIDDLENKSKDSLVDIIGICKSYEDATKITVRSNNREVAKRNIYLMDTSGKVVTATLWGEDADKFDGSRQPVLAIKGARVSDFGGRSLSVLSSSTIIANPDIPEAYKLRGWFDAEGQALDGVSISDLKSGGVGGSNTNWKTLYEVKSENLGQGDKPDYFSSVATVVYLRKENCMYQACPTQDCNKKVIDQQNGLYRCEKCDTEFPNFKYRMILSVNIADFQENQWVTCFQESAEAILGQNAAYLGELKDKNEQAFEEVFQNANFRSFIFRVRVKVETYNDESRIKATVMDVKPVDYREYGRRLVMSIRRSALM
RAD52;RPA, sequence (P15927 whole entry, chain 3 of 3): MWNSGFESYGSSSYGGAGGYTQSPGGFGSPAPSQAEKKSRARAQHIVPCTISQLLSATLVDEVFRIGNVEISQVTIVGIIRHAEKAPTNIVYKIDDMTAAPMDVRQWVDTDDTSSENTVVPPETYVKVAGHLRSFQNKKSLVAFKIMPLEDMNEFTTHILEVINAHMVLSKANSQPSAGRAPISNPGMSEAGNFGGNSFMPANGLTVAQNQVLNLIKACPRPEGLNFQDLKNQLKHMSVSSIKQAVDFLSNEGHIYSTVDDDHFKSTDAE
RAD52;RPA, sequence (P35244 whole entry, chain 4 of 3): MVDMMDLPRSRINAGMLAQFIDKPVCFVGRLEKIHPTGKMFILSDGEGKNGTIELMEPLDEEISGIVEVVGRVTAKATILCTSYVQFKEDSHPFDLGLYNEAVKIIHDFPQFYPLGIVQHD

For series [8], the target named is T5, RAD52 (UniProt P43351 1-418).
T5 sequence: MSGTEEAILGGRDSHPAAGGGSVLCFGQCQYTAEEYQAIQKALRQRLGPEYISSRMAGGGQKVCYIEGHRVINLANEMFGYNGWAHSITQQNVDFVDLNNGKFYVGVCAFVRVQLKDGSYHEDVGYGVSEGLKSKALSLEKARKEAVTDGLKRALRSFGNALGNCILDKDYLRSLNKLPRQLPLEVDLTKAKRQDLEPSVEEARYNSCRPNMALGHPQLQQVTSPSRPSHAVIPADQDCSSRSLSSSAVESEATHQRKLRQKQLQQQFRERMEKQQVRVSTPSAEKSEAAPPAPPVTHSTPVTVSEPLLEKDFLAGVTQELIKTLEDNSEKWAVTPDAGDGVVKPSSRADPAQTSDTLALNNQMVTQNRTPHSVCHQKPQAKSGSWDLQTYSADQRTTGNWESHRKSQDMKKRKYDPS
Briefly: FRET; 1 nM ssDNA; stoichiometric wrapped complex at about 8 nM RAD52; FRET: 30 mM Tris-acetate pH 7.5, 1 mM DTT, 0.1 mg/mL BSA, 25 C; HTS: 20 mM Hepes pH 7.5, 1 mM DTT, 0.1 mg/mL BSA, 25 C. Conditions: protein: recombinant; chain copies: 7; label: Cy3 and Cy5 at the two ends.

Series [9] has as its target RPA (UniProt P27694;P15927;P35244 1-616;1-270;1-121). Nature of the series: FRET; 1 nM RPA, 1 nM ssDNA; FRET about 0.3 versus about 0.48 for free DNA; FRET: 30 mM Tris-acetate pH 7.5, 1 mM DTT, 0.1 mg/mL BSA, 25 C; HTS: 20 mM Hepes pH 7.5, 1 mM DTT, 0.1 mg/mL BSA, 25 C. Conditions: protein: recombinant; copies: 1;1;1; label: Cy3 and Cy5 at the two ends.
Series [10] deals with the molecule itself. Nature of the series: dynamic light scattering; average hydrodynamic radius of RAD52 (15.8 uM) alone or with equimolar compound; 25 C; 50 mM Tris-HCl pH 7.5, 200 mM KCl, 1 mM DTT, 0.5 mM EDTA.

T1 sequence (P27694 whole entry partner, one chain of several): as the sequence (P27694 whole entry, chain 2 of 3) above
T1 sequence (P15927 whole entry partner, one chain of several): as the sequence (P15927 whole entry, chain 3 of 3) above
T1 sequence (P35244 whole entry partner, one chain of several): as the sequence (P35244 whole entry, chain 4 of 3) above
RPA (UniProt P27694;P15927;P35244 1-616;1-270;1-121), sequence (P27694 whole entry, chain 1 of 3): as the sequence (P27694 whole entry, chain 2 of 3) above
RPA (UniProt P27694;P15927;P35244 1-616;1-270;1-121), sequence (P15927 whole entry, chain 2 of 3): as the sequence (P15927 whole entry, chain 3 of 3) above
RPA (UniProt P27694;P15927;P35244 1-616;1-270;1-121), sequence (P35244 whole entry, chain 3 of 3): as the sequence (P35244 whole entry, chain 4 of 3) above
T4 sequence (P27694 whole entry): as the sequence (P27694 whole entry, chain 2 of 3) above
T4 sequence (P15927 whole entry): as the sequence (P15927 whole entry, chain 3 of 3) above
T4 sequence (P35244 whole entry): as the sequence (P35244 whole entry, chain 4 of 3) above
T3 sequence (P27694 whole entry): as the sequence (P27694 whole entry, chain 2 of 3) above
T3 sequence (P15927 whole entry): as the sequence (P15927 whole entry, chain 3 of 3) above
T3 sequence (P35244 whole entry): as the sequence (P35244 whole entry, chain 4 of 3) above

As for `NC(Cc1cc(O)c(O)cc1O)C(=O)O` (racemic) [6-hydroxy-DL-dopa], in series [1], the “effect on RAD52 supramolecular assembly” value is “disrupts supramolecular assembly of the RAD52 protein”.

As a reminder, the IC50 is the concentration that inhibits the measured activity by half. As for `O=C(OC1Cc2c(O)cc(O)cc2OC1c1cc(O)c(O)c(O)c1)c1cc(O)c(O)c(O)c1` (stereo not shown) [Compound 6, Epigallocatechin-3-monogallate], the “effect on the RAD52-RPA interaction” value in series [2] is listed as “neither ‘1’ nor ‘6’ interfered with the interaction between the two proteins”. Further, in [3], the IC50 is approximately 10 µM. Also, the “binding to RAD52 (WaterLOGSY)” value in series [4] is reported as “physically interact with RAD52 protein”. Moreover, the “effect on the RPA-ssDNA interaction” value in series [5] is given as “neither ‘1’ nor ‘6’ affected the RPA-ssDNA interaction”. Also, the “binding to RPA (WaterLOGSY)” value in series [6] was “also binds to RPA”.

B1: Cy3-dT30-Cy5 (ssDNA)
DNA: TTTTTTTTTTTTTTTTTTTTTTTTTTTTTT
Consider B1, for which the binding result in series [7], in [8] and in series [9] was “binds” in each case.

B2: 6xHis-tagged human RAD52 protein (natural protein, UniProt P43351 1-418, looked up)
chain: MSGTEEAILGGRDSHPAAGGGSVLCFGQCQYTAEEYQAIQKALRQRLGPEYISSRMAGGGQKVCYIEGHRVINLANEMFGYNGWAHSITQQNVDFVDLNNGKFYVGVCAFVRVQLKDGSYHEDVGYGVSEGLKSKALSLEKARKEAVTDGLKRALRSFGNALGNCILDKDYLRSLNKLPRQLPLEVDLTKAKRQDLEPSVEEARYNSCRPNMALGHPQLQQVTSPSRPSHAVIPADQDCSSRSLSSSAVESEATHQRKLRQKQLQQQFRERMEKQQVRVSTPSAEKSEAAPPAPPVTHSTPVTVSEPLLEKDFLAGVTQELIKTLEDNSEKWAVTPDAGDGVVKPSSRADPAQTSDTLALNNQMVTQNRTPHSVCHQKPQAKSGSWDLQTYSADQRTTGNWESHRKSQDMKKRKYDPS
notes: RAD52, human DNA repair protein; the N-terminal domain in PDB 1KNO is an undecameric ring
In the case of B2, the binding result in series [10] was “binds”.
